Values belong to the molecule of their own block, whether it stands above or below them.
Experiments:
cytochrome P450 (CYP) = settings: cited from earlier work
antiplatelet responses = settings: conventional doses of clopidogrel; cited from earlier work
[1] = system: carboxyl esterase 1 (CES1); settings: in the liver; cited from earlier work
[2] = Pharmacokinetic study of CPGS in rat plasma after oral clopidogrel alone or with FDDP; assay type: in vivo, SD rats
Description: Analyses were performed using the Agilent HPLC 1100 system (Agilent, USA) consisting of a quat pump (G1311A), an autosampler (G1313A), and an online degasser (G1322A). The chromatographic separation was performed on an Agilent Zorbax SB C18 column (4.6 mm × 250 mm, 5 μm). A simple gradient method was used, in which the percentage of acetonitrile-buffer (0.2% phosphoric acid in water) was varied as shown in Table 1 at a flow rate of 1.0 mL/min. The injection volume was 10 μL. The total LC run time was 12 min with the column temperature kept at 30°C and the detection at a wavelength of 220 nm.
An aliquot of 10 μL 1 M hydrochloric acid (HCL), 100 μL blood plasma, and 10 μL of IS (160 μg/mL) was added into a 1.5 mL centrifuge tube. After vortex-mixing for 1 min, 1 mL of extraction solvent (ethyl acetate-dichloromethane; 4 : 1, V/V) was added and vortexed vigorously for 4 min, followed by centrifugation for 12 min at 12000 rpm. Next, 950 μL of supernatant was transferred into another tube and evaporated to dryness at 40°C for 90 min under a gentle stream of nitrogen. The residue was reconstituted with 100 μL of the mobile phase and vortexed for 1 min and then centrifuged for 5 min at 12000 rpm. For analysis, 10 μL of the supernatant was injected onto the HPLC system. The plasma concentrations of the analytes exceeded the upper limit of quantification, and therefore the sample was diluted with blank plasma and vortexed for 1 min. A 100 μL aliquot of diluted sample was processed under the same sample pretreatment procedure as mentioned above.
The preclinical pharmacokinetic study was based on 16 SD rats. The investigation was approved by the Animal Ethics Committee of the Nanjing University of Traditional Chinese Medicine. Two groups of 8 rats each were used according to a parallel study. The clopidogrel-only group received 30 mg/kg oral administration of clopidogrel. The combination group (clopidogrel 30 mg/kg + FDDP 324 mg/kg) received their dose administered as a combination. The rats fasted for 12 h prior to the experiment, while free access to water remained. Plasma samples were collected at 0, 0.25, 0.5, 1, 1.5, 2.3, 4, 6, 8, 10, 12, and 24 h after dosing. Blood samples of 400 μL were obtained via an in-dwelling catheter in the caudal vein and collected into heparinized tubes. Then, the plasma was centrifuged for 10 min at 4000 rpm and the supernatant was transferred to labelled plastic vials at −80°C until the completion of the analysis.
Pharmacokinetic parameters were calculated using Drug and Statistic (DAS) 3.0 pharmacokinetic software (Chinese Pharmacological Association, Anhui, China). The pharmacokinetic parameters included the compartment parameters and statistical parameters (Table 6).
The area under the plasma concentration-time curve (AUC) was calculated using the linear trapezoidal rule. The elimination rate constant (kel) was calculated by linear regression of the terminal points of the semilog plot of the plasma concentration against time. The half-life of drug elimination during the terminal phase (t 1/2) was calculated from the formula t 1/2 = 0.693/kel. Mean residence time (MRT) was calculated as AUMC/AUC, where AUMC is the area under the first moment of the plasma concentration-time curve. The volume of distribution (Vd) of the central compartment was calculated as dose/C 0, where C 0 is the concentration measured just after the administration. Plasma clearance (CL) was calculated as dose/AUC.

[3] = Stability of CPGS in plasma samples (HPLC method validation); assay type: physicochemical, rat
Description: Stability experiments were performed to evaluate the analyte stability in stock solutions and in plasma samples under different conditions. Room temperature stability, refrigerated stability of extracted sample, freeze-thaw stability, and long-term stability were performed using three replicates at each QC level.

[4] = CPGS in rat plasma, clopidogrel 30 mg/kg intragastric, administered alone, 21 days
[5] = CPGS in rat plasma, coadministration clopidogrel 30 mg/kg + FDDP 324 mg/kg intragastric, 21 days
[6] = CPGS in rat plasma, coadministration clopidogrel 30 mg/kg + FDDP 324 mg/kg intragastric, 21 days, P < 0.05 vs clopidogrel-only
[7] = combination vs clopidogrel alone, rats
[8] = combination vs clopidogrel-only group, rats
[9] = combination vs clopidogrel-only group, rats, not statistically significant

SMILES: COC(=O)[C@H](c1ccccc1Cl)N1CCc2sccc2C1 [clopidogrel]
Share of absorbed clopidogrel dose transformed by CYP into thiol metabolite (cytochrome P450 (CYP)): 15%
Patients displaying inadequate antiplatelet responses (antiplatelet responses): 5–40%
Share of absorbed parent drug transformed by CES1 into inactive carboxylic acid derivative (CPGS) [1]: 85%

AUC (0–tn) [2, 4]: 90.529 ± 18.557 mg/L∗h
AUC (0–∞) [2, 4]: 104.965 ± 24.367 mg/L∗h
CL/F [2, 4]: 5.15 ± 2.08 mL/min/kg
Ka [2, 4]: 6.807 ± 6.698
MAT [2, 4]: 13.336 ± 2.566 h
MRT (0–tn) [2, 4]: 7.453 ± 0.747 h
MRT (0–∞) [2, 4]: 11.359 ± 2.022 h
T1/2β [2, 4]: 14.788 ± 14.311 h
T max [2, 4]: 1.208 ± 0.332 h
V/F [2, 4]: 5.079 ± 2.153 L/kg
AUC (0–tn) [2, 5]: 70.314 ± 35.213 mg/L∗h
AUC (0–∞) [2, 5]: 76.324 ± 39.971 mg/L∗h
C max [2, 5]: 10146 ± 4848 ng/mL
CL/F [2, 5]: 7.58 ± 3.07 mL/min/kg
Ka [2, 5]: 2.519 ± 3.073
MRT (0–tn) [2, 5]: 6.871 ± 0.741 h
T1/2β [2, 5]: 19.495 ± 18.931 h
T max [2, 5]: 1.583 ± 0.376 h
V/F [2, 5]: 9.987 ± 9.820 L/kg
MAT [2, 6]: 8.198 ± 3.556 h
MRT (0–∞) [2, 6]: 8.854 ± 1.873 h
Change of area under the curve of CPGS by FDDP [2, 7]: decreased
Change of peak plasma concentration of CPGS by FDDP [2, 7]: decreased
Change of MAT of CPGS in the combination group [2, 8]: greater degrees of decline
Change of MRT (0-∞) of CPGS in the combination group [2, 8]: greater degrees of decline
Change of CL/F of CPGS in the combination group [2, 9]: slightly higher
Change of T max of CPGS in the combination group [2, 9]: slightly higher
Pharmacokinetic model describing CPGS ([2]; rat plasma after clopidogrel alone or with FDDP): two-compartment open model
Stability in extracted plasma samples ([3]; 24 h at room temperature): stable
Long-term stability of spiked plasma samples ([3]; stored at −20°C, 20 days): stable
SMILES: O=C(O)[C@H](c1ccccc1Cl)N1CCc2sccc2C1 [CPGS]
